Experimental data: US6858647B2, “Retinoid compounds suited for antibacterial applications” (Galderma Research & Development S.N.C., priority 2000, dated 2005)
In brackets after ≈: the same amount, converted by molar mass.

test system: Staphylococcus aureus CIP52.1; experiment: Minimum inhibitory concentration (MIC), NCCLS dilution antimicrobial susceptibility test; format: cell-based; settings: Staphylococcus aureus, CIP52, Table II, Example 1; mean of at least three tests; bacteriostatic effect; read-out: MIC RESULTS MEAN
Description: The bacterium Staphylococcus aureus CIP52.1 may be used in order to determine for each test compound the minimum inhibitory concentration for the bacterium, or MIC, expressed in μM.
The technique employed to determine the minimum inhibitory concentration or MIC was that described in the publication entitled “National committee for clinical laboratory standards” Vol. 13, No. 25, December 1993; Methods for dilution antimicrobial susceptibility tests for bacteria that grow aerobically-third edition, approved standard”. This minimum inhibitory concentration gives an indication as to the bacteriostatic effect of the test compounds, i.e., the capacity of these compounds to stop the proliferation of the bacterium.
Each compound of the invention was tested at least three times. The average of the test results was calculated, along with the standard deviation. The reference compound used was gentamycin.
The technique employed to determine the MIC values was the same as that described in Example 1.
Each compound of the invention and each comparative example taken from the Pierre Fabre patent application No. FR-2,736,548 was tested at least three times. The mean of the test results was calculated, along with the standard deviation. The reference compound used was gentamycin.

| Structure (SMILES) | MIC |
| --- | --- |
| COc1cccc(C=CC#Cc2ccc(C(=O)O)cc2)c1-c1ccc(C)cc1 [Compound 3, 4-[4-(6-Methoxy-4′-methylbiphenyl-2-yl)but-3-en-1-ynyl]benzoic acid] | 1.04 µM (≈ 0.383 µg/mL) |
| Cc1cc(O)c(C23CC4CC(CC(C4)C2)C3)cc1-c1ccc2cc(C(=O)O)ccc2c1 [Compound 4, 6-[2-Methyl-4-hydroxy-5-(1-adamantyl)phenyl]-2-naphthoic acid] | 1.25 µM (≈ 0.516 µg/mL) |
| Cc1ccc(-c2ccccc2C=CC#Cc2ccc(C(=O)O)c(O)c2)cc1 [Compound 6, 2-Hydroxy-4-[4-(4′-methylbiphenyl-2-yl)but-3-en-1-ynyl]benzoic acid] | 1.25 µM (≈ 0.443 µg/mL) |
| Cc1ccc(-c2ccc(C)cc2C=CC#Cc2ccc(C(=O)O)cc2)cc1 [Compound 8, 4-[4-(4,4′-Dimethylbiphenyl-2-yl)but-3-en-1-ynyl]benzoic acid] | 1.66 µM (≈ 0.585 µg/mL) |
| Cc1ccc(-c2c(C)cccc2C=CC#Cc2ccc(C(=O)O)cc2)cc1 [Compound 12, 4-[4-(6,4′-Dimethylbiphenyl-2-yl)but-3-en-1-ynyl]benzoic acid] | 2.08 µM (≈ 0.733 µg/mL) |
| CCCCCCCCCON=C(C(=O)Nc1ccc(C(=O)O)cc1)c1ccc2c(c1)C(C)(C)CCC2(C)C [Compound 17, 4-[2-Nonyloxyimino-2-(5,5,8,8-tetramethyl-5,6,7,8-tetrahydronaphthalen-2-yl)acetylamino]benzoic acid] | 2.5 µM (≈ 1.3 µg/mL) |
| COCCOCOc1ccc(C#Cc2ccc(C(=O)O)c(O)c2)cc1C12CC3CC(CC(C3)C1)C2 [Compound 18, 4-[3-Adamantan-1-yl-4-(2-methoxyethoxymethoxy)-phenylethynyl]-2-hydroxybenzoic acid] | 2.5 µM (≈ 1.19 µg/mL) |
| CC1(C)CCC(C)(C)c2cc3cc(-c4ccc(CO)c(O)c4)ccc3cc21 [Compound 20, 2-Hydroxymethyl-5-(5,5,8,8-tetramethyl-5,6,7,8-tetrahydroanthracen-2-yl)phenol] | 2.5 µM (≈ 0.901 µg/mL) |
| CCCCOC(c1ccc2c(c1)C(C)(C)CCC2(C)C)c1ccc2cc(C(=O)O)ccc2c1 (stereo not drawn) [Compound 24, 6-[Butoxy-(5,5,8,8-tetramethyl-5,6,7,8-tetrahydronaphthalen-2-yl)methyl]naphthalene-2-carboxylic acid] | 3.33 µM (≈ 1.48 µg/mL) |
| CCCCCCCCCC(C)(C)c1cc(C(=O)Nc2ccc(C(=O)O)cc2)ccc1OC [Compound 25, 4-[3-(1,1-Dimethyldecyl)-4-methoxybenzoylamino]-benzoic acid] | 3.33 µM (≈ 1.46 µg/mL) |
| CCCCCCOc1ccc(C(=O)Nc2ccc(C(=O)O)cc2)cc1C12CC3CC(CC(C3)C1)C2 [Compound 26, 4-(3-Adamantan-1-yl-4-hexyloxybenzoylamino)benzoic acid] | 3.33 µM (≈ 1.58 µg/mL) |
| CC1(C)CCC(C)(C)c2cc3cc(-c4ccc(C(=O)O)c(O)c4)ccc3cc21 [Compound 28, 2-Hydroxy-4-(5,5,8,8-tetramethyl-5,6,7,8-tetrahydroanthracen-2-yl)benzoic acid] | 3.33 µM (≈ 1.25 µg/mL) |
| O=C(O)c1ccc2oc(-c3ccc(O)c(C45CC6CC(CC(C6)C4)C5)c3)cc2c1 [Compound 29, 2-(3-Adamantan-1-yl-4-hydroxyphenyl)benzofuran-5-carboxylic acid] | 3.33 µM (≈ 1.29 µg/mL) |
| CCCCCCCC/C=C(\C(=O)Nc1ccc(C(=O)O)cc1)c1ccc2c(c1)C(C)(C)CCC2(C)C [Compound 36, 4-[(Z)-2-(5,6,7,8-tetrahydro-5,5,8,8-tetramethyl-2-naphthyl)-2-undecenamido]benzoic acid] | 4.16 µM (≈ 2.04 µg/mL) |
| CCCCCCCON=C(C(=O)Nc1ccc(C(=O)O)cc1)c1ccc2c(c1)C(C)(C)CCC2(C)C [Compound 39, 4-[2-Heptyloxyimino-2-(5,5,8,8-tetramethyl-5,6,7,8-tetrahydronaphthalen-2-yl)acetylamino]-benzoic acid] | 5 µM (≈ 2.46 µg/mL) |
| CC1(C)CCC(C)(C)c2cc(Oc3ccc4cc(C(N)=O)ccc4c3)ccc21 [Compound 40, 6-(5,5,8,8-Tetramethyl-5,6,7,8-tetrahydronaphthalen-2-yloxy)naphthalene-2-carboxylic acid amide] | 5 µM (≈ 1.87 µg/mL) |
| COc1cc(C)c(-c2cccc(C=CC(=O)O)c2)cc1C12CC3CC(CC(C3)C1)C2 [Compound 45, 3-(5′-Adamantan-1-yl-4′-methoxy-2′-methylbiphenyl-3-yl)acrylic acid] | 5 µM (≈ 2.01 µg/mL) |

same assay, conditions: Staphylococcus aureus, CIP52, read-out: MIC RESULTS MEAN

| Structure (SMILES) | MIC |
| --- | --- |
| Cc1cc2c(cc1[Se]C#Cc1ccc(C(=O)O)c(O)c1)C(C)(C)CCC2(C)C [Compound 22, 2-Hydroxy-4-(3,5,5,8,8-pentamethyl-5,6,7,8-tetrahydronaphthalen-2-ylselanylethynyl)benzoic acid] | 2.5 µM (≈ 1.1 µg/mL) |
| Cc1cc2c(cc1[Se]C#Cc1ccc(C(=O)O)cc1)C(C)(C)CCC2(C)C [Compound 33, 4-(3,5,5,8,8-Pentamethyl-5,6,7,8-tetrahydronaphthalen-2-ylselanylethynyl)benzoic acid] | 3.33 µM (≈ 1.42 µg/mL) |
| CC1(C)CCC(C)(C)c2cc([Se]C#Cc3ccc(C(=O)O)c(O)c3)ccc21 [Compound 42, 2-Hydroxy-4-(5,5,8,8-tetramethyl-5,6,7,8-tetrahydronaphthalen-2-ylselanylethynyl)benzoic acid] | 5 µM (≈ 2.14 µg/mL) |

same assay, conditions: Table II, Example 1; mean of at least three tests; bacteriostatic effect; read-out: MIC RESULTS MEAN

| Structure (SMILES) | MIC |
| --- | --- |
| COc1ccc(C#Cc2cc(C(=O)O)cs2)cc1C12CC3CC(CC(C3)C1)C2 [Compound 7] | 1.66 µM (≈ 0.652 µg/mL) |
| CC(CO)COc1ccc(C#Cc2ccc(C(=O)O)cc2)cc1C12CC3CC(CC(C3)C1)C2 (stereo not drawn) [Compound 19, 4-[[3-(1-Adamantyl)-4-[(2-methyl-3-hydroxypropyloxy)phenyl]ethynyl]]benzoic acid] | 2.50 µM (≈ 1.11 µg/mL) |
| COc1cc2c(cc1-c1cc(-c3ccc(C(=O)O)cc3)ccc1-c1ccccc1)C(C)(C)CCC2(C)C [Compound 23, 2′-(3-Methoxy-5,5,8,8-tetramethyl-5,6,7,8-tetrahydronaphthalen-2-yl) [1,1′,4′,1″]terphenyl-4″-carboxylic acid] | 2.50 µM (≈ 1.23 µg/mL) |
| OCc1ccc2cc(-c3ccc(O)c(C45CC6CC(CC(C6)C4)C5)c3)ccc2c1 [Compound 27, 6-[3-(1-Adamantyl)-4-hydroxyphenyl]-2-napthylmethanol] | 3.33 µM (≈ 1.28 µg/mL) |
| CCCOc1ccc(-c2ccc3c(c2)C(C)(C)CCC3(C)C)cc1-c1ccc(C(=O)O)cc1 [Compound 38, 2′-Propoxy-5′-(5,5,8,8-tetramethyl-5,6,7,8-tetrahydronaphthalen-2-yl)bipheny-1-4-carboxylic acid] | 4.16 µM (≈ 1.84 µg/mL) |
| COc1ccc(-c2ccc3cc(C(=O)NCCN(C)C)ccc3c2)cc1C12CC3CC(CC(C3)C1)C2 [Compound 41, (2-Dimethylaminoethyl)amide of 6-(3-adamantan-1-yl-4-methoxyphenyl)naphthalene-2-carboxylic acid] | 5.00 µM (≈ 2.41 µg/mL) |
| COCOc1cc2c(cc1-c1cc(-c3ccc(C(=O)O)cc3)ccc1-c1ccccc1)C(C)(C)CCC2(C)C [Compound 43, 2′-(3-Methoxymethoxy-5,5,8,8-tetramethyl-5,6,7,8-tetrahydronaphthalen-2-yl) [1,1′,4′,1″]terphenyl-4″-carboxylic acid] | 5.00 µM (≈ 2.6 µg/mL) |
| CC1(C)CCC(C)(C)c2cc(-c3cc(-c4ccc(C(=O)O)cc4)ccc3-c3cccc(O)c3)ccc21 [Compound 44, 3-Hydroxy-2′-(5,5,8,8-tetramethyl-5,6,7,8-tetrahydronaphthalen-2-yl) [1,1′,4′,1″]terphenyl-4″-carboxylic acid] | 5.00 µM (≈ 2.38 µg/mL) |

test system: RAR receptor; experiment: Biological activity of RAR receptor antagonist / agonist type; settings: stated in words, no test described

| Structure (SMILES) | biological activity at RAR receptor (antagonist or agonist type) |
| --- | --- |
| COc1cccc(C=CC#Cc2ccc(C(=O)O)cc2)c1-c1ccc(C)cc1 [Compound 3, 4-[4-(6-Methoxy-4′-methylbiphenyl-2-yl)but-3-en-1-ynyl]benzoic acid] | RAR receptor antagonist type |
| COc1ccc(C#Cc2cc(C(=O)O)cs2)cc1C12CC3CC(CC(C3)C1)C2 [Compound 7] | RAR receptor agonist type |
